Several values for one entry are separate records, joined by “and”; a condition that tells them apart may be missing. Equal values may be shown once. Inconclusive results and toxic doses are left out.

We go through 17 compounds from PubChem BioAssay AID248 (DTP/NCI, 2004).

The subject of this assay is L1210 leukemia ip in BDF1 mice, survival T/C. Kind of assay: NCI In Vivo Anticancer Drug Screen. Data for tumor model L1210 Leukemia (intraperitoneal) in B6D2F1 (BDF1) mice. To be noted: endpoint: mean survival time, higher = longer survival. The gist of the method: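 Value reflects the ratio of survival in compound-treated mice to survival in vehicle-treated controls, with both groups carrying the same transplanted tumor.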

The mark [1] stands for this setting: dose: 75.0 mg/kg/injection, schedule: Q01DX001 (ip), vehicle: saline.
The mark [2] stands for this setting: dose: 100.0 mg/kg/injection, schedule: Q01DX001 (ip), vehicle: saline.
Where [3] appears, read: dose: 100.0 mg/kg/injection, schedule: Q04DX003 (ip), vehicle: saline with Tween-80.
Setting [4] is: dose: 200.0 mg/kg/injection, schedule: Q04DX003 (ip), vehicle: saline with Tween-80.
The mark [5] stands for this setting: dose: 100.0 mg/kg/injection, schedule: Q04DX003 (ip), vehicle: Klucel (hydroxypropylcellulose) (HPC).
Setting [6] is: dose: 200.0 mg/kg/injection, schedule: Q04DX003 (ip), vehicle: Klucel (hydroxypropylcellulose) (HPC).
Where [7] appears, read: dose: 400.0 mg/kg/injection, schedule: Q04DX003 (ip), vehicle: Klucel (hydroxypropylcellulose) (HPC).
Where [8] appears, read: dose: 100.0 mg/kg/injection, schedule: Q01DX009 (ip), vehicle: Klucel (hydroxypropylcellulose) (HPC).
The mark [9] stands for this setting: dose: 200.0 mg/kg/injection, schedule: Q01DX009 (ip), vehicle: Klucel (hydroxypropylcellulose) (HPC).
Setting [10] is: dose: 400.0 mg/kg/injection, schedule: Q01DX009 (ip), vehicle: Klucel (hydroxypropylcellulose) (HPC).
The mark [11] stands for this setting: dose: 400.0 mg/kg/injection, schedule: Q04DX003 (ip), vehicle: saline with Tween-80.

`CS(=O)(=O)OCCN(CCOS(C)(=O)=O)c1ccc(C=O)cc1`: the T/C (dose: 3.8 mg/kg/injection, schedule: Q01DX009 (ip), vehicle: saline) is 122 % of control; the T/C (dose: 6.0 mg/kg/injection, schedule: Q01DX001 (ip), vehicle: saline) is 112 % of control; the T/C (dose: 7.5 mg/kg/injection, schedule: Q01DX009 (ip), vehicle: saline) was 113 % of control; the T/C (dose: 12.0 mg/kg/injection, schedule: Q01DX001 (ip), vehicle: saline) was 118 % of control; the T/C (dose: 15.0 mg/kg/injection, schedule: Q01DX009 (ip), vehicle: saline) is 122 % of control; the T/C (dose: 25.0 mg/kg/injection, schedule: Q01DX001 (ip), vehicle: saline) was 120 % of control. The T/C is, setting by setting: (dose: 30.0 mg/kg/injection, schedule: Q01DX009 (ip), vehicle: saline) 116 % of control; (dose: 60.0 mg/kg/injection, schedule: Q01DX009 (ip), vehicle: saline) 116 % of control and 118 % of control; under setting [1], 104 % of control; (dose: 99.0 mg/kg/injection, schedule: Q01DX009 (ip), vehicle: saline) 110 % of control.
`OC(CCN1CCCCC1)(c1cccs1)C(O)(CCN1CCCCC1)c1cccs1` (stereo not drawn): the T/C reads like this: under setting [2], 97 % of control; (dose: 200.0 mg/kg/injection, schedule: Q01DX001 (ip), vehicle: saline) 90 % of control.
Regarding `C/C=C/Cn1cnc2c1c(=O)n(C)c(=O)n2C`, the T/C was 95 % of control under setting [3] and 95 % of control under setting [4].
On to `CC(C)C(NC(=O)OC(C)(C)C)C(=O)O` (stereo not drawn), for which the T/C (dose: 12.5 mg/kg/injection, schedule: Q01DX009 (ip), vehicle: alcohol) was 106 % of control; the T/C (dose: 25.0 mg/kg/injection, schedule: Q01DX009 (ip), vehicle: alcohol) was 109 % of control; the T/C (dose: 25.0 mg/kg/injection, schedule: Q04DX003 (ip), vehicle: other) is 107 % of control; the T/C (dose: 50.0 mg/kg/injection, schedule: Q01DX009 (ip), vehicle: alcohol) was 96 % of control; the T/C (dose: 50.0 mg/kg/injection, schedule: Q04DX003 (ip), vehicle: other) is 93 % of control and 108 % of control; the T/C under setting [2] is 103 % of control. Further, the T/C (dose: 100.0 mg/kg/injection, schedule: Q01DX009 (ip), vehicle: alcohol) is 104 % of control; the T/C (dose: 100.0 mg/kg/injection, schedule: Q04DX003 (ip), vehicle: other) was 94 % of control and 96 % of control; the T/C (dose: 200.0 mg/kg/injection, schedule: Q01DX009 (ip), vehicle: alcohol) is 107 % of control; the T/C (dose: 200.0 mg/kg/injection, schedule: Q04DX003 (ip), vehicle: other) was 101 % of control and 103 % of control.
For the compound `CCN(CC)P(=O)(N1CC1C)N1CC1C` (stereo not drawn), the T/C reads like this: (dose: 4.4 mg/kg/injection, schedule: Q01DX015 (ip), vehicle: saline) 111 % of control; (dose: 6.25 mg/kg/injection, schedule: Q01DX009 (ip), vehicle: saline) 122 % of control; (dose: 6.6 mg/kg/injection, schedule: Q01DX015 (ip), vehicle: saline) 105 % of control; (dose: 10.0 mg/kg/injection, schedule: Q01DX015 (ip), vehicle: saline) 106 % of control; (dose: 14.0 mg/kg/injection, schedule: Q01DX009 (ip), vehicle: saline) 112 % of control; (dose: 15.0 mg/kg/injection, schedule: Q01DX015 (ip), vehicle: saline) 106 % of control. Besides, the T/C was 109 % of control (dose: 33.0 mg/kg/injection, schedule: Q01DX015 (ip), vehicle: saline); 108 % of control and 115 % of control (dose: 44.4 mg/kg/injection, schedule: Q01DX001 (ip), vehicle: saline); 102 % of control (dose: 50.0 mg/kg/injection, schedule: Q01DX015 (ip), vehicle: saline); 121 % of control (dose: 66.6 mg/kg/injection, schedule: Q01DX001 (ip), vehicle: saline); 90 % of control (dose: 75.0 mg/kg/injection, schedule: Q01DX009 (ip), vehicle: saline); 157 % of control (dose: 150.0 mg/kg/injection, schedule: Q01DX001 (ip), vehicle: saline).
Turning to `SCc1c(Cl)c(Cl)c(Cl)c(Cl)c1Cl.[Hg]`, the T/C reads like this: under setting [5], 93 % of control; under setting [6], 91 % of control; under setting [7], 93 % of control.
Consider `CCOc1ccc(NC(=O)Nc2cccc(C(F)(F)F)c2)cc1`, for which the T/C is 91 % of control under setting [8], 96 % of control under setting [9] and 93 % of control under setting [10].
As for `O=C1C(Cl)=C(Nc2ccccc2Cl)C(=O)C(Cl)=C1Nc1ccccc1Cl`, the T/C reads like this: (dose: 50.0 mg/kg/injection, schedule: Q01DX001 (ip), vehicle: carboxymethylcellulose (CMC)) 101 % of control; (dose: 100.0 mg/kg/injection, schedule: Q01DX001 (ip), vehicle: carboxymethylcellulose (CMC)) 101 % of control; under setting [3], 95 % of control; (dose: 200.0 mg/kg/injection, schedule: Q01DX001 (ip), vehicle: carboxymethylcellulose (CMC)) 90 % of control; under setting [4], 98 % of control; (dose: 400.0 mg/kg/injection, schedule: Q01DX001 (ip), vehicle: carboxymethylcellulose (CMC)) 95 % of control. In addition, the T/C under setting [11] was 98 % of control.
For the compound `Cc1cc(C)n(C(N)=O)n1`, the T/C reads like this: under setting [8], 109 % of control; under setting [5], 105 % of control and 104 % of control; under setting [9], 104 % of control; under setting [6], 97 % of control and 102 % of control; under setting [10], 110 % of control; under setting [7], 101 % of control and 104 % of control.
In the case of `O=C(C(=O)c1ccccc1)c1ccccc1`, the T/C runs as follows: (dose: 25.0 mg/kg/injection, schedule: Q01DX009 (ip), vehicle: water) 102 % of control; (dose: 50.0 mg/kg/injection, schedule: Q01DX009 (ip), vehicle: water) 96 % of control; (dose: 100.0 mg/kg/injection, schedule: Q01DX009 (ip), vehicle: water) 102 % of control; under setting [3], 101 % of control; (dose: 200.0 mg/kg/injection, schedule: Q01DX009 (ip), vehicle: water) 107 % of control; under setting [4], 97 % of control. Further, the T/C (dose: 400.0 mg/kg/injection, schedule: Q01DX009 (ip), vehicle: water) was 98 % of control and the T/C under setting [11] is 101 % of control.
With `CCCCCCCC/C=C/CCCCCCCC(=O)NCC[N+]1(C)CCCCC1`, the T/C under setting [1] is 95 % of control.
Consider `CCOC(=O)c1nc2cc(C)c(C)cc2[nH]c1=O`, for which the T/C is 92 % of control under setting [3], 99 % of control under setting [4] and 93 % of control under setting [11].
`CN(C)c1nc(N)c(N=O)c(N)n1`: the T/C (dose: 100.0 mg/kg/injection, schedule: Q04DX002 (ip), vehicle: saline with Tween-80) was 111 % of control; the T/C (dose: 200.0 mg/kg/injection, schedule: Q04DX002 (ip), vehicle: saline with Tween-80) is 107 % of control; the T/C (dose: 400.0 mg/kg/injection, schedule: Q04DX002 (ip), vehicle: saline with Tween-80) is 104 % of control.
`O=C(CCCCCCC(=O)C[N+]12CCC(CC1)C(O)C2)C[N+]12CCC(CC1)C(O)C2` (stereo not drawn): the T/C by setting is: (dose: 0.15 mg/kg/injection, schedule: Q04DX003 (ip), vehicle: saline) 102 % of control; (dose: 0.3 mg/kg/injection, schedule: Q04DX003 (ip), vehicle: saline) 100 % of control; (dose: 0.6 mg/kg/injection, schedule: Q04DX003 (ip), vehicle: saline) 102 % of control.
Turning to `CC(C)(C)NC(=O)NCC1CCCC1NC(=O)NC(C)(C)C` (stereo not drawn), the T/C is, setting by setting: (dose: 100.0 mg/kg/injection, schedule: Q04DX002 (ip), vehicle: Klucel (hydroxypropylcellulose) (HPC)) 92 % of control; (dose: 200.0 mg/kg/injection, schedule: Q04DX002 (ip), vehicle: Klucel (hydroxypropylcellulose) (HPC)) 99 % of control; (dose: 400.0 mg/kg/injection, schedule: Q04DX002 (ip), vehicle: Klucel (hydroxypropylcellulose) (HPC)) 92 % of control.
For `CC(=O)Nc1ccc(NC(=O)Nc2cccc(Cl)c2C)cc1`, the T/C under setting [8] is 89 % of control, the T/C under setting [9] is 89 % of control and the T/C under setting [10] was 91 % of control.
For the compound `O=[N+]([O-])c1ccc(OC(=S)Cl)cc1`, the T/C was 99 % of control (dose: 6.25 mg/kg/injection, schedule: Q04DX002 (ip), vehicle: saline with Tween-80); 101 % of control (dose: 12.5 mg/kg/injection, schedule: Q04DX002 (ip), vehicle: saline with Tween-80); 96 % of control (dose: 25.0 mg/kg/injection, schedule: Q04DX002 (ip), vehicle: saline with Tween-80); 103 % of control under setting [3].
